Laboratory results as given in ChEMBL document CHEMBL4196206, “Aturanosides A and B, Glycosylated Anthraquinones with Antiangiogenic Activity from a Soil-Derived Streptomyces Species” (J Nat Prod, 2018).
The source made the active and inactive calls. The rule behind the calls is not given here.

Legend:
HUVEC [1] = test: Cytotoxicity against VEGF-stimulated HUVEC at 100 uM after 24 hrs by EZ-Cytox cell viability assay; type: cell-based; conditions: human
HUVEC [2] = test: Antiangiogenic activity in HUVEC assessed as inhibition of VEGF-induced capillary tube formation by matrigel-based microscopic analysis; type: functional, cell-based; conditions: Homo sapiens
HUVEC [3] = test: Antiinvasive activity in HUVEC assessed as inhibition of VEGF-induced cell invasion at 25 uM by crystal violet staining based matrigel invasion chamber assay; type: functional; conditions: Homo sapiens
[4] = molecular target: Vascular endothelial growth factor receptor 2 (Homo sapiens) (UniProt P35968); test: Inhibition of VEGFR2 phosphorylation in VEGF-stimulated HUVEC at 10 to 50 uM after 6 hrs by Western blot analysis; type: cell-based
HUVEC [5] = test: Down regulation of VE-cadherin expression in VEGF-stimulated HUVEC at 10 to 50 uM after 6 hrs by Western blot analysis; type: functional, cell-based; conditions: Homo sapiens
HUVEC [6] = test: Antiinvasive activity in HUVEC assessed as inhibition of VEGF-induced cell invasion by crystal violet staining based matrigel invasion chamber assay; type: functional; conditions: Homo sapiens
[7] = molecular target: Vascular endothelial growth factor receptor 2 (Homo sapiens) (UniProt P35968); test: Inhibition of VEGFR2 phosphorylation in VEGF-stimulated HUVEC after 6 hrs by Western blot analysis; type: cell-based
HUVEC [8] = test: Down regulation of VE-cadherin expression in VEGF-stimulated HUVEC after 6 hrs by Western blot analysis; type: functional, cell-based; conditions: Homo sapiens

Vascular endothelial growth factor receptor 2 (Homo sapiens), sequence (P35968 whole entry): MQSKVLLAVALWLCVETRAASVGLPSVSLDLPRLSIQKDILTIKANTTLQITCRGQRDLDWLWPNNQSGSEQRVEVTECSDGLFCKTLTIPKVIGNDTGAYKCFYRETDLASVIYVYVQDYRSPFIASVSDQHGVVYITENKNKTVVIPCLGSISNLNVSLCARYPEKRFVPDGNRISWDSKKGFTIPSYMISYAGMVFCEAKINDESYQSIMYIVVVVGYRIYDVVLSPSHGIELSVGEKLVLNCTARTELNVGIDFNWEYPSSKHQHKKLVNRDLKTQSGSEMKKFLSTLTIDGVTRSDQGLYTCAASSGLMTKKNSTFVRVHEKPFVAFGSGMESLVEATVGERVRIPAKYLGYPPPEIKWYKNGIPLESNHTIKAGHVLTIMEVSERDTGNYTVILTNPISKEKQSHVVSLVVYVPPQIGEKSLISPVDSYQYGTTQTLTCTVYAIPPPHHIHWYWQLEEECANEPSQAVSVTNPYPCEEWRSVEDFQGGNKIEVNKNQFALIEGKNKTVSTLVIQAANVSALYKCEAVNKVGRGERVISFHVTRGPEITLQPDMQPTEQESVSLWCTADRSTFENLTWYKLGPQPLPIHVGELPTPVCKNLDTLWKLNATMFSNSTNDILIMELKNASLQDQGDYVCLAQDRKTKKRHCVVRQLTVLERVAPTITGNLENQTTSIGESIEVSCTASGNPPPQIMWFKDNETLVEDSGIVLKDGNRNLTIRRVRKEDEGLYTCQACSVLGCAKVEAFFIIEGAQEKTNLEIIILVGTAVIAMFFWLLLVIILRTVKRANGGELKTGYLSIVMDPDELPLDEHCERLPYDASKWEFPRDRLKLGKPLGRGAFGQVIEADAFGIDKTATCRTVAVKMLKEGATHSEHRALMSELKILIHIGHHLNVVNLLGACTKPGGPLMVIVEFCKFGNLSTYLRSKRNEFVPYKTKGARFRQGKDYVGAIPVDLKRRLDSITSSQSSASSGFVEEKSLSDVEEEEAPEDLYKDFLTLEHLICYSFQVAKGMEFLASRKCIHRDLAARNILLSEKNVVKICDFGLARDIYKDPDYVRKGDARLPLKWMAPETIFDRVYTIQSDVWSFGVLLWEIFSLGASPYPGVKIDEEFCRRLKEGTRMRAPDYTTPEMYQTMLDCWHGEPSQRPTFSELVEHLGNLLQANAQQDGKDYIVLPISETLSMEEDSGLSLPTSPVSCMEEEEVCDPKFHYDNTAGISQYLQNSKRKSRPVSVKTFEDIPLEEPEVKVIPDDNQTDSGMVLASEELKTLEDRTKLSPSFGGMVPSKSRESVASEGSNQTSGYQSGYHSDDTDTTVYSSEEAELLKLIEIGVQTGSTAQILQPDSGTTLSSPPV

inhibition [4] | inhibition [7] | SMILES | Activity (HUVEC [1]) | inhibition (HUVEC [2]) | inhibition (HUVEC [3]) | Activity (HUVEC [5]) | inhibition (HUVEC [6]) | Activity (HUVEC [8])
Active |  | CCCc1cc(O[C@@H]2O[C@@H](C)[C@H](O)[C@@H](O)[C@H]2OC2O[C@H](CO)[C@@H](O)[C@H](O)[C@H]2NC(C)=O)cc2c1C(=O)c1c(O)cc(O)cc1C2=O (some centres undefined) | Non-Toxic | Dose-dependent effect | Active | Active |  | 
 | inactive | CCCc1c(C(=O)O)c(O)cc2c1C(=O)c1c(O)cc(O)cc1C2=O |  | inactive |  |  | inactive | inactive
Active |  | CCCc1cc(O[C@@H]2O[C@@H](C)[C@H](O)[C@@H](O)[C@H]2O)cc2c1C(=O)c1c(O)cc(O)cc1C2=O | Non-Toxic | Dose-dependent effect | Active | Active |  | 
